{"source": "paper PMC9790248", "about": "“Effects of CYP3A Inhibition, CYP3A Induction, and Gastric Acid Reduction on the Pharmacokinetics of Ripretinib, a Switch Control KIT Tyrosine Kinase Inhibitor” (Clinical Pharmacology in Drug Development, 2022)", "key": {"[1]": {"experiment": "Itraconazole (strong CYP3A inhibitor) DDI study, plasma pharmacokinetics", "assay_type": "in vivo, human", "conditions": "for AUC(0-t) / AUC(0-inf) / Cmax / half-life / Tmax: both sexes, human, plasma; for AUC(0-t) / AUC(0-inf) / Cmax / half-life: po; for AUC(0-t) / AUC(0-inf) / Cmax / half-life / Tmax / CL/F, arithmetic mean (SD) / CL/F, geometric mean (CV%): fasting; for Tmax: read-out: tmax, median (min, max); for Time postdose that mean plasma concentration remained above the LLOQ: LLOQ 2.00 ng/mL", "procedure": "All studies were phase 1, fixed‐sequence, open‐label studies in healthy volunteers. One study consisted of two separate cohorts examining DDIs between ripretinib and itraconazole or pantoprazole, respectively; the rifampin study was conducted separately. Studies and cohorts were enrolled independently. Eligible participants were healthy male or female adults between 18 and 55 years of age with a body mass index (BMI) of ≥18.5 and ≤30 kg/m^2. Good health was confirmed by a physician and based on medical evaluation with no significant findings, including medical history, physical examination, laboratory tests, and 12‐lead electrocardiogram (ECG) at screening and day −1. Participants were required to abstain from alcohol, marijuana, grapefruit, Seville oranges, tangelo, star fruit, and grapefruit‐like products 14 days prior to and during the study. Participants with a positive breath test for Helicobacter pylori were excluded from the pantoprazole study.\nRipretinib and its active metabolite DP‐5439 plasma concentrations were measured using a validated high‐performance liquid chromatography (HPLC) with tandem mass spectrometry (LC‐MS/MS) assay with a lower limit of quantification (LLOQ) of 2.00 ng/mL for both analytes. In this method, the analytes (ripretinib and DP‐5439) and the internal standards (ISs; DCC‐2618‐d5 and DP‐5439‐d5) were released from human plasma samples by protein precipitation. The supernatants were chromatographed using reversed‐phase HPLC with a Betasil® C8 analytical column with deionized water (0.1% formic acid) and 40/60 acetonitrile/acetone (0.1% formic acid) as the mobile phase. Mass spectrometric detection was performed on a triple quadrupole tandem mass spectrometer API 5000 or API 5500 (Applied Biosystems/MDS Sciex, Toronto, Canada) equipped with a turbo ion spray source operated in the positive ionization mode. The source parameters were collision energy 40 eV, collision gas 6 psi, Nebulizer Gas 1, Turbo IonSpray Gas 2, and curtain gas 35 psi. Quantification was obtained by using multiple reaction monitoring mode of the transitions of mass to charge ratio [m/z] 510.3 →417 for DCC‐2618 (ripretinib), m/z 496.2 →403 for DP‐5439, m/z 515.3 →417 for DCC‐2618‐d5, and m/z 501.2 →403 for DP‐5439‐d5.\nPlasma concentration–time data were analyzed using noncompartmental methods using Phoenix® WinNonlin® v7.0 (Certara USA Inc., Princeton, New Jersey). Derived PK parameters included area under the concentration–time curve from time 0 to time t (AUC0–t) and area under the concentration–time curve from 0 to infinity (AUC0–∞), maximum observed concentration (Cmax), time of maximum observed concentration (tmax), elimination half‐life (t1/2), apparent systemic clearance, and for DP‐5439, metabolite to parent ratio for AUC0–t, AUC0–∞, and Cmax.\nThe PK population included all participants who received ≥1 dose ripretinib and had ≥1 nonmissing PK concentration in plasma reported for ripretinib or DP‐5439. The PK evaluable set included all participants in the PK population who had ripretinib PK parameters on both ripretinib dosing days, bioanalytical results for ≥75% of planned analyses, no missed ripretinib doses and ≤2 missed perpetrator (itraconazole, pantoprazole, or rifampin) doses before the second dosing day of ripretinib, and no emesis within 8 hours of ripretinib administration. […]"}, "[2]": {"conditions": "cited from earlier work"}, "[3]": {"biological_target": "T1, CYP2D6 (Homo sapiens, UniProt P10635)", "T1 construct": "with human liver microsomes (0.5 mg protein/mL) for 30 minutes; from tissue; host or cells: human liver microsomes", "T1 sequence (P10635 whole entry, canonical isoform)": "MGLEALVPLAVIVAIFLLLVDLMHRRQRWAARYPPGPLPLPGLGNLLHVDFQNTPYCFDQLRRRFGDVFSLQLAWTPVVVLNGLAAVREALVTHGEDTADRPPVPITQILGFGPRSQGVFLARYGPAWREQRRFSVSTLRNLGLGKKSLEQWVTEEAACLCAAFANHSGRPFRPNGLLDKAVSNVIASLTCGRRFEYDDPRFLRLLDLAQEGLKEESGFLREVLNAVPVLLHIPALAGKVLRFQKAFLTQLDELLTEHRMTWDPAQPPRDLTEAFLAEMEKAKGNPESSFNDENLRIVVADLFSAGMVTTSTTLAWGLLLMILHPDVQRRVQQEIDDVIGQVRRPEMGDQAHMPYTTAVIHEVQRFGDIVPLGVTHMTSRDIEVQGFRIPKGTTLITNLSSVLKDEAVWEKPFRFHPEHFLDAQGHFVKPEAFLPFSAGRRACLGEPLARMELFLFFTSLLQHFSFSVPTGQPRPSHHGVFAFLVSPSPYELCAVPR", "experiment": "Human liver microsomes with chemical inhibitors", "assay_type": "in vitro ADME", "procedure": "(§1) In vitro studies with recombinant human cytochrome P450 isoforms (CYPs) and human liver microsomes (with chemical inhibitors) indicate that CYP3A4/5 plays a major role in the metabolism of ripretinib (data on file). When incubated with a panel of recombinant human CYPs, ripretinib (0.1 or 1 μM) disappeared in the presence of CYP3A4 (87.8%–100%), CYP2D6 (97.7%–100%), CYP2C8 (71.2% and 18.9%, respectively), and CYP2C19 (15.7% and 6.7%, respectively)."}, "[4]": {"tested_on": "CYP3A4/5", "experiment": "Human liver microsomes with chemical inhibitors", "assay_type": "in vitro ADME", "procedure": "as §1"}, "[5]": {"biological_target": "T2, CYP2C8 (Homo sapiens, UniProt P10632)", "T2 sequence (P10632 1-490)": "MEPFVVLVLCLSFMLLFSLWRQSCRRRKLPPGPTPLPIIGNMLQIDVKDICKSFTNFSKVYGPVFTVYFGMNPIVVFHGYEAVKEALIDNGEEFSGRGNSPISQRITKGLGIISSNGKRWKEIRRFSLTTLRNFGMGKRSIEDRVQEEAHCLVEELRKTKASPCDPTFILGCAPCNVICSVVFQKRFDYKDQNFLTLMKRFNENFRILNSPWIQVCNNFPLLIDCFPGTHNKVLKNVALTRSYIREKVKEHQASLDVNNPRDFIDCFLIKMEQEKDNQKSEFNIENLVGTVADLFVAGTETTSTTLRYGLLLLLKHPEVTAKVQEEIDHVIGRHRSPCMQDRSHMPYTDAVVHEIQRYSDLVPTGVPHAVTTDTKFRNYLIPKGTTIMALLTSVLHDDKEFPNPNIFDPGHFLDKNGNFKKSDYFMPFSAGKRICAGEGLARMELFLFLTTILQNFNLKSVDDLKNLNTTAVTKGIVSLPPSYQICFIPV", "experiment": "Human liver microsomes with chemical inhibitors", "assay_type": "in vitro ADME", "conditions": "metabolism-dependent inhibitor gemfibrozil glucuronide", "procedure": "as §1"}, "[6]": {"tested_on": "hepatocytes", "parameters": "method as in PMID 31085175", "conditions": "cited from earlier work"}, "[7]": {"conditions": "ripretinib 50 mg single oral dose + itraconazole 200 mg QD, healthy participants (N = 20)"}, "[8]": {"conditions": "ripretinib 50 mg single oral dose alone, healthy participants (itraconazole study, N = 20)"}, "[9]": {"conditions": "ripretinib 50 mg with itraconazole 200 mg QD relative to ripretinib alone"}, "[10]": {"conditions": "20 mg once daily up to 150 mg once daily"}}, "note": "Where “and” joins values, the source holds several entries; their conditions need not be identical. Identical values can stand only once. Like-named read-outs stand apart in the source and are kept apart here."}
{"smiles": "CCn1c(=O)c(-c2cc(NC(=O)Nc3ccccc3)c(F)cc2Br)cc2cnc(NC)cc21", "note": "[Ripretinib]", "values": [{"measurement": "AUC(0-t)", "setting": "[1]; 50 mg, ripretinib 50 mg single oral dose alone, healthy participants (itraconazole study, N = 20), read-out: AUC0–t, arithmetic mean (SD)", "value": 4400, "unit": "ng·h/mL"}, {"measurement": "AUC(0-t)", "setting": "[1]; 50 mg, ripretinib 50 mg single oral dose alone, healthy participants (itraconazole study, N = 20), read-out: AUC0–t, geometric mean (CV%)", "value": 4060, "unit": "ng·h/mL"}, {"measurement": "AUC(0-inf)", "setting": "[1]; 50 mg, ripretinib 50 mg single oral dose alone, healthy participants (itraconazole study, N = 20), read-out: AUC0–∞, arithmetic mean (SD)", "value": 4500, "unit": "ng·h/mL"}, {"measurement": "AUC(0-inf)", "setting": "[1]; 50 mg, ripretinib 50 mg single oral dose alone, healthy participants (itraconazole study, N = 20), read-out: AUC0–∞, geometric mean (CV%)", "value": 4180, "unit": "ng·h/mL"}, {"measurement": "Cmax", "setting": "[1]; 50 mg, ripretinib 50 mg single oral dose alone, healthy participants (itraconazole study, N = 20), read-out: Cmax, arithmetic mean (SD)", "value": 321, "unit": "ng/mL"}, {"measurement": "Cmax", "setting": "[1]; 50 mg, ripretinib 50 mg single oral dose alone, healthy participants (itraconazole study, N = 20), read-out: Cmax, geometric mean (CV%)", "value": 291, "unit": "ng/mL"}, {"measurement": "half-life", "setting": "[1]; 50 mg, ripretinib 50 mg single oral dose alone, healthy participants (itraconazole study, N = 20), read-out: t1/2, arithmetic mean (SD) (converted)", "value": 17, "unit": "h"}, {"measurement": "half-life", "setting": "[1]; 50 mg, ripretinib 50 mg single oral dose alone, healthy participants (itraconazole study, N = 20), read-out: t1/2, geometric mean (CV%) (converted)", "value": 16, "unit": "h"}, {"measurement": "AUC(0-t)", "setting": "[1]; ripretinib 50 mg single oral dose + itraconazole 200 mg QD, healthy participants (N = 20), read-out: AUC0–t, arithmetic mean (SD)", "value": 8900, "unit": "ng·h/mL"}, {"measurement": "AUC(0-t)", "setting": "[1]; ripretinib 50 mg single oral dose + itraconazole 200 mg QD, healthy participants (N = 20), read-out: AUC0–t, geometric mean (CV%)", "value": 8060, "unit": "ng·h/mL"}, {"measurement": "AUC(0-inf)", "setting": "[1]; ripretinib 50 mg single oral dose + itraconazole 200 mg QD, healthy participants (N = 20), read-out: AUC0–∞, arithmetic mean (SD)", "value": 9190, "unit": "ng·h/mL"}, {"measurement": "AUC(0-inf)", "setting": "[1]; ripretinib 50 mg single oral dose + itraconazole 200 mg QD, healthy participants (N = 20), read-out: AUC0–∞, geometric mean (CV%)", "value": 8310, "unit": "ng·h/mL"}, {"measurement": "Cmax", "setting": "[1]; ripretinib 50 mg single oral dose + itraconazole 200 mg QD, healthy participants (N = 20), read-out: Cmax, arithmetic mean (SD)", "value": 404, "unit": "ng/mL"}, {"measurement": "Cmax", "setting": "[1]; ripretinib 50 mg single oral dose + itraconazole 200 mg QD, healthy participants (N = 20), read-out: Cmax, geometric mean (CV%)", "value": 395, "unit": "ng/mL"}, {"measurement": "half-life", "setting": "[1]; ripretinib 50 mg single oral dose + itraconazole 200 mg QD, healthy participants (N = 20), read-out: t1/2, arithmetic mean (SD) (converted)", "value": 27, "unit": "h"}, {"measurement": "half-life", "setting": "[1]; ripretinib 50 mg single oral dose + itraconazole 200 mg QD, healthy participants (N = 20), read-out: t1/2, geometric mean (CV%) (converted)", "value": 24, "unit": "h"}, {"measurement": "Tmax", "setting": "[1]; [7]", "value": 4, "unit": "h"}, {"measurement": "Tmax", "setting": "[1]; [8]", "value": 3, "unit": "h"}, {"measurement": "Increase in exposure with daily itraconazole coadministration", "setting": "[1]; ripretinib 50 mg + itraconazole 200 mg QD vs ripretinib alone", "value": "up to 99%"}, {"measurement": "Time postdose that mean plasma concentration remained above the LLOQ", "setting": "[1]; ripretinib 50 mg alone (itraconazole study)", "value": 96, "unit": "h"}, {"measurement": "CL/F, arithmetic mean (SD)", "setting": "[1]; [7]", "value": "7 (3) L/h"}, {"measurement": "CL/F, geometric mean (CV%)", "setting": "[1]; [7]", "value": "6 (48) L/h"}, {"measurement": "CL/F, arithmetic mean (SD)", "setting": "[1]; [8]", "value": "13 (5) L/h"}, {"measurement": "CL/F, geometric mean (CV%)", "setting": "[1]; [8]", "value": "12 (42) L/h"}, {"measurement": "Geometric LS mean ratio of AUC0–t", "setting": "[1]; [9]", "value": 198, "unit": "%"}, {"measurement": "Geometric LS mean ratio of AUC0–∞ (90% CI)", "setting": "[1]; [9]", "value": "199 (174–227) %"}, {"measurement": "Geometric LS mean ratio of Cmax (90% CI)", "setting": "[1]; [9]", "value": "136% and 136 (116–159) %"}, {"measurement": "Geometric LS mean ratio of AUC0–∞ (90% CI)", "setting": "[1]; ripretinib 50 mg with itraconazole 200 mg QD relative to ripretinib alone, listed as ripretinib", "value": 199, "unit": "%"}, {"measurement": "Time postdose that mean plasma concentration remained above the LLOQ", "setting": "[1]; ripretinib 50 mg with itraconazole", "value": "up to 168 hours"}, {"measurement": "Dose proportionality of AUC", "setting": "[2]; [10]", "value": "generally proportional to dose"}, {"measurement": "Dose proportionality of Cmax", "setting": "[2]; [10]", "value": "less than dose proportional"}, {"measurement": "Time to maximum plasma concentrations", "setting": "[2]; cancer patients, after a single dose", "value": "approximately 4 hours"}, {"measurement": "Time to reach steady-state conditions", "setting": "[2]; cancer patients", "value": "≤ 14", "unit": "days"}, {"measurement": "Accumulation ratio", "setting": "[2]; once-daily dosing of 150 mg", "value": "approximately 1.7"}, {"measurement": "Maximum tolerated dose", "setting": "[2]; patients with cancer, doses up to ripretinib 200 mg twice daily", "value": "not reached"}, {"measurement": "Steady-state PK exposure, 150 mg twice daily compared with 150 mg once daily", "setting": "[2]; patients", "value": "approximately 2 fold"}, {"measurement": "Inhibition of metabolism of ripretinib on inhibition of CYP2D6", "setting": "[3]; human liver microsomes, metabolism-dependent inhibitor paroxetine", "value": 16, "unit": "%"}, {"measurement": "Decrease in metabolism of ripretinib on inhibition of CYP2D6", "setting": "[3]; ripretinib 0.1 μM, human liver microsomes 0.5 mg protein/mL, 30 minutes, with quinidine", "value": "≤ 26", "unit": "%"}, {"measurement": "Inhibition of metabolism of ripretinib on inhibition of CYP3A4/5", "setting": "[4]; human liver microsomes, metabolism-dependent inhibitor troleandomycin", "value": 79, "unit": "%"}, {"measurement": "Role of CYP3A4/5 in metabolism", "setting": "[4]; recombinant human CYPs and human liver microsomes with chemical inhibitors, data on file", "value": "major role"}, {"measurement": "Decrease in metabolism of ripretinib on inhibition of CYP3A4/5", "setting": "[4]; ripretinib 0.1 μM, human liver microsomes 0.5 mg protein/mL, 30 minutes, with ketoconazole", "value": "up to 63%"}, {"measurement": "Inhibition of metabolism of ripretinib on inhibition of CYP2C8", "setting": "[5]", "value": 24, "unit": "%"}, {"measurement": "Major metabolic pathway", "setting": "[6]", "value": "N‐demethylation"}]}
